{
  "source": "the supplement of paper PMC8372320",
  "data": [
    {"assay": "photocatalytic hydrogen evolution rate (per 5 mg catalyst); higher = more photocatalytic H2 evolution; extreme values may be limits of the assay", "details": "catalyst mass (mg): 5; Pt cocatalyst (wt%): 3; sacrificial medium: triethylamine/methanol/water 1:1:1", "units": {"photocatalytic hydrogen evolution rate": "µmol/h"}, "values": [
      {"smiles": "O=C1C(O)=C(O)C(=O)C(O)=C1O", "photocatalytic hydrogen evolution rate": 0},
      {"smiles": "c1ccc(N=C(Nc2ccccc2)Nc2ccccc2)cc1", "photocatalytic hydrogen evolution rate": 0},
      {"smiles": "N#Cc1cc(F)cc(F)c1", "photocatalytic hydrogen evolution rate": 0},
      {"smiles": "Cc1ccc(C)c(N=Nc2cc(C)c(N=Nc3c(O)ccc4ccccc34)cc2C)c1", "photocatalytic hydrogen evolution rate": 0},
      {"smiles": "O=C1C=CC(=O)c2ccccc21", "photocatalytic hydrogen evolution rate": 0},
      {"smiles": "N#Cc1cncc(C=O)c1", "photocatalytic hydrogen evolution rate": 0.0889},
      {"smiles": "Fc1c(Br)cccc1Br", "photocatalytic hydrogen evolution rate": 0},
      {"smiles": "O=c1[nH]cc(Br)nc1Br", "photocatalytic hydrogen evolution rate": 0},
      {"smiles": "c1ccc2c(c1)cc1ccc3cccc4ccc2c1c34", "photocatalytic hydrogen evolution rate": 0.00851},
      {"smiles": "Cc1cc(C#N)cnc1Br", "photocatalytic hydrogen evolution rate": 0},
      {"smiles": "O=Cc1ccc(-c2ccncc2)cc1", "photocatalytic hydrogen evolution rate": 3.29},
      {"smiles": "N#Cc1c(F)c(F)c(C#N)c(F)c1F", "photocatalytic hydrogen evolution rate": 8.13},
      {"smiles": "CC1(C)OB(c2ccc(-c3cccs3)s2)OC1(C)C", "photocatalytic hydrogen evolution rate": 0},
      {"smiles": "N#Cc1c(-n2c3ccccc3c3ccccc32)c(C#N)c(-n2c3ccccc3c3ccccc32)c(-n2c3ccccc3c3ccccc32)c1-n1c2ccccc2c2ccccc21", "photocatalytic hydrogen evolution rate": 20.5},
      {"smiles": "O=Cc1c(O)cc(O)cc1O", "photocatalytic hydrogen evolution rate": 0},
      {"smiles": "C#Cc1ccc(C#C)cc1", "photocatalytic hydrogen evolution rate": 0},
      {"smiles": "Brc1ccc2ccc3c(Br)ccc4ccc1c2c43", "photocatalytic hydrogen evolution rate": 0.16},
      {"smiles": "O=c1c2ccccc2sc2ccccc12", "photocatalytic hydrogen evolution rate": 14.6},
      {"smiles": "N#Cc1ccc(Br)nc1", "photocatalytic hydrogen evolution rate": 0},
      {"smiles": "Cc1cc(C)cc(-c2cc(C)cc(C)c2)c1", "photocatalytic hydrogen evolution rate": 0},
      {"smiles": "COc1c(Br)cc(Br)cc1Br", "photocatalytic hydrogen evolution rate": 0},
      {"smiles": "CCc1cc(C)cc(CC)c1Nc1ccc(Nc2c(CC)cc(C)cc2CC)c2c1C(=O)c1ccccc1C2=O", "photocatalytic hydrogen evolution rate": 0}
    ]}
  ]
}
